Measurements: US6852673B2, “Herbicidal pyridine compounds” (BASF Aktiengesellschaft, priority 1998, dated 2005)

Tests used:
Assay type in all cases: in vivo
Zea mays (ZEAMX) = test: Pre-emergence herbicidal evaluation, maize
Description: (§1) The pre-emergence herbicidal activity of the compounds of the present invention is exemplified by the following test in which the seeds of a variety of monocotyledonous and dicotyledonous plants are seperately mixed with potting soil and planted on top of approximately one inch of soil in separate pots. After planting, the pots are sprayed with the selected aqueous acetone solution containing test compound in sufficient quantity to provide the equivalent of about 0.0125 to 0.4 kg per hectare of test compound per pot. The treated pots are then placed on greenhouse benches, watered and cared for in accordance with conventional greenhouse procedures. From 2 to 4 weeks after treatment, the tests are terminated and each pot is examined and rated according to the rating system set forth below.

[1] = tested on: Cassia obtusifolia (CASOB); test: Pre-emergence herbicidal evaluation, sicklepod; conditions: dose 0.4 kg/ha
Description: as §1

Galium aparine (GALAP) = test: Pre-emergence herbicidal evaluation, cleaver
Procedure, shortened: (§2)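 Seeds are mixed into potting soil and planted; the pots are sprayed with aqueous acetone containing compound (about 0.0125 to 0.4 kg/ha equivalent); they are kept and watered in a greenhouse; each pot is rated at 2 to 4 weeks.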

[2] = tested on: Digitaria sanguinalis (DIGSA); test: Pre-emergence herbicidal evaluation, large crabgrass
Procedure, shortened: as §2

Glycine max (GLXMA) = test: Post-emergence herbicidal evaluation, soyabeans; conditions: rated 2 to 4 weeks after treatment
Procedure: (§3) [table] [table] […] These acetone solutions are diluted with water and the resulting formulations applied at dosage levels equivalent of about 0.03 to 0.4 kg per hectare of test compound per pot. After spraying the plants are placed on greenhouse benches and are cared for in the usual manner, commensurate with conventional greenhouse practices. From 2 to 4 weeks after treatment, the seedling plants are examined and rated according to the rating system provided above. A rating 0 indicates growth as untreated control, a rating 9 indicates death.

[3] = tested on: Cassia obtusifolia (CASOB); test: Post-emergence herbicidal evaluation, sicklepod; conditions: rated 2 to 4 weeks after treatment
Procedure: as §3

[4] = tested on: Ipomoea hederacea (IPOHE); test: Post-emergence herbicidal evaluation, morning glory; conditions: rated 2 to 4 weeks after treatment
Procedure: as §3

[5] = tested on: Alopecurus myosuroides (ALOMY); test: Post-emergence herbicidal evaluation, black grass; conditions: rated 2 to 4 weeks after treatment
Procedure: as §3

[6] = tested on: Digitaria sanguinalis (DIGSA); test: Post-emergence herbicidal evaluation, large crabgrass; conditions: rated 2 to 4 weeks after treatment
Procedure: as §3

weeds = test: Post-emergence herbicidal evaluation, overall weed control; conditions: in barley at crop selective doses
Procedure: as §3

[7] = tested on: Echinochloa grus galli (ECHCG); test: Post-emergence herbicidal evaluation, barnyard grass; conditions: rated 2 to 4 weeks after treatment
Procedure: as §3

For `Cc1cc(OCC(F)(F)C(F)F)nc(Oc2cc(C(F)(F)F)nn2C)c1` [Example 6], the ZEAMX rating (Zea mays (ZEAMX); dose 0.013 kg/ha) was 0 (0 - No effect), the ZEAMX rating (Zea mays (ZEAMX); dose 0.025 kg/ha) was 1 (1 - Trace effect) and the ZEAMX rating (Zea mays (ZEAMX); dose 0.1 kg/ha) was 3 (3 - Moderate effect). For the same compound, the ZEAMX rating (Zea mays (ZEAMX); dose 0.4 kg/ha) was 5 (5 - Definite injury), the CASOB rating [1] was 9 (9 - Complete kill) and the GALAP rating (Galium aparine (GALAP); dose 0.013 kg/ha) was 1 (1 - Trace effect). For the same compound, the GALAP rating (Galium aparine (GALAP); dose 0.025 kg/ha) was 1 (1 - Trace effect), the GALAP rating (Galium aparine (GALAP); dose 0.1 kg/ha) was 5 (5 - Definite injury) and the GALAP rating (Galium aparine (GALAP); dose 0.4 kg/ha) was 8 (8 - Approaching complete kill). For the same compound, the DIGSA rating ([2]; dose 0.013 kg/ha) was 1 (1 - Trace effect), the DIGSA rating ([2]; dose 0.025 kg/ha) was 2 (2 - Slight effect) and the DIGSA rating ([2]; dose 0.1 kg/ha) was 9 (9 - Complete kill). For the same compound, the DIGSA rating ([2]; dose 0.4 kg/ha) was 9 (9 - Complete kill), the GLXMA rating (Glycine max (GLXMA); dose 0.1 kg/ha) was 7 (7 - Good herbicidal effect) and the GLXMA rating (Glycine max (GLXMA); dose 0.25 kg/ha) was 7 (7 - Good herbicidal effect). The GLXMA rating (Glycine max (GLXMA); dose 0.4 kg/ha) was 7 (7 - Good herbicidal effect), the CASOB rating ([3]; dose 0.25 kg/ha) was 4 (4 - Injury) and the CASOB rating ([3]; dose 0.4 kg/ha) was 6 (6 - Herbicidal effect). The IPOHE rating ([4]; dose 0.1 kg/ha) was 8 (8 - Approaching complete kill), the IPOHE rating ([4]; dose 0.25 kg/ha) was 7 (7 - Good herbicidal effect) and the IPOHE rating ([4]; dose 0.4 kg/ha) was 9 (9 - Complete kill). For the same compound, the ALOMY rating ([5]; dose 0.1 kg/ha) was 6 (6 - Herbicidal effect), the ALOMY rating ([5]; dose 0.25 kg/ha) was 2 (2 - Slight effect) and the ALOMY rating ([5]; dose 0.4 kg/ha) was 8 (8 - Approaching complete kill). For the same compound, the DIGSA rating ([6]; dose 0.1 kg/ha) was 6 (6 - Herbicidal effect), the DIGSA rating ([6]; dose 0.25 kg/ha) was 4 (4 - Injury) and the DIGSA rating ([6]; dose 0.4 kg/ha) was 7 (7 - Good herbicidal effect). For the same compound, the broad-leaved weed control (weeds) was “effective”.

For `Cc1cc(OCC(F)(F)C(F)(F)C(F)(F)C(F)F)nc(Oc2cc(C(F)(F)F)nn2C)c1` [Example 8], the selectivity in maize (Zea mays (ZEAMX)) was “good selectivity”, the ZEAMX rating (Zea mays (ZEAMX); dose 0.013 kg/ha) was 1 (1 - Trace effect) and the ZEAMX rating (Zea mays (ZEAMX); dose 0.025 kg/ha) was 1 (1 - Trace effect). For the same compound, the ZEAMX rating (Zea mays (ZEAMX); dose 0.1 kg/ha) was 1 (1 - Trace effect), the ZEAMX rating (Zea mays (ZEAMX); dose 0.4 kg/ha) was 2 (2 - Slight effect) and the GALAP rating (Galium aparine (GALAP); dose 0.013 kg/ha) was 1 (1 - Trace effect). The GALAP rating (Galium aparine (GALAP); dose 0.025 kg/ha) was 1 (1 - Trace effect), the GALAP rating (Galium aparine (GALAP); dose 0.1 kg/ha) was 6 (6 - Herbicidal effect) and the GALAP rating (Galium aparine (GALAP); dose 0.4 kg/ha) was 8 (8 - Approaching complete kill). The DIGSA rating ([2]; dose 0.013 kg/ha) was 1 (1 - Trace effect), the DIGSA rating ([2]; dose 0.025 kg/ha) was 2 (2 - Slight effect) and the DIGSA rating ([2]; dose 0.1 kg/ha) was 9 (9 - Complete kill). For the same compound, the DIGSA rating ([2]; dose 0.4 kg/ha) was 9 (9 - Complete kill), the GLXMA rating (Glycine max (GLXMA); dose 0.03 kg/ha) was 5 (5 - Definite injury) and the GLXMA rating (Glycine max (GLXMA); dose 0.1 kg/ha) was 7 (7 - Good herbicidal effect). For the same compound, the GLXMA rating (Glycine max (GLXMA); dose 0.4 kg/ha) was 8 (8 - Approaching complete kill), the CASOB rating ([3]; dose 0.03 kg/ha) was 2 (2 - Slight effect) and the CASOB rating ([3]; dose 0.1 kg/ha) was 7 (7 - Good herbicidal effect). The CASOB rating ([3]; dose 0.4 kg/ha) was 7 (7 - Good herbicidal effect), the IPOHE rating ([4]; dose 0.03 kg/ha) was 7 (7 - Good herbicidal effect) and the IPOHE rating ([4]; dose 0.1 kg/ha) was 9 (9 - Complete kill). For the same compound, the IPOHE rating ([4]; dose 0.4 kg/ha) was 9 (9 - Complete kill), the ALOMY rating ([5]; dose 0.03 kg/ha) was 2 (2 - Slight effect) and the ALOMY rating ([5]; dose 0.1 kg/ha) was 7 (7 - Good herbicidal effect). The ALOMY rating ([5]; dose 0.4 kg/ha) was 8 (8 - Approaching complete kill), the DIGSA rating ([6]; dose 0.03 kg/ha) was 8 (8 - Approaching complete kill) and the DIGSA rating ([6]; dose 0.1 kg/ha) was 9 (9 - Complete kill). The DIGSA rating ([6]; dose 0.4 kg/ha) was 9 (9 - Complete kill), the ECHCG rating ([7]; dose 0.03 kg/ha) was 2 (2 - Slight effect) and the ECHCG rating ([7]; dose 0.1 kg/ha) was 5 (5 - Definite injury). For the same compound, the ECHCG rating ([7]; dose 0.4 kg/ha) was 8 (8 - Approaching complete kill) and the broad-leaved weed control (weeds) was “effective”.
